Marks after values point to notes of the source that are not given here.
Columns and labels:
S. richteri = assay: Two-choice digging bioassay, head-to-head against octanoic acid; format: in vivo, Solenopsis richteri; conditions: 25.00 ppm; both S. richteri colonies; FIGS. 3 and 4
Protocol: (§1) The repellency of the two terpenoids, callicarpenal and intermedeol, against workers of red imported fire ants, Solenopsis invicta Buren, black imported fire ants, Solenopsis rickeri Forel, and a hybrid of these two species was evaluated using multiple-choice digging bioassays (Tables 9 & 10). […] Callicarpenal and intermedeol were compared with octanoic acid, a known fire ant repellant, at the 25.00 ppm level using two-choice digging bioassays (FIGS. 3 and 4).
(§2) Head-to-head comparison on repellency of callicarpenal and intermedeol against octanoic acid: The bioassay apparatus was similar as described above, except a smaller Petri dish (8.7×2.3 cm) was used and only two choices were presented: one was sand treated with callicarpenal or intermedeol and the other with octanoic acid. Two choices were opposite each other across the center of the Petri dish and each was 3.0 cm away from the center. All compounds were tested at a 25.00 ppm level. Sand preparation was similar as described above. Ants from the same colonies as above were used in this experiment. There were five replications for each pair of comparisons. A paired t-test (critical P-value=0.05) was used to compare the mean amount of sand removed between two tubes.

Aedes aegypti = assay: K & D module mosquito anti-biting (repellent) bioassay; format: in vivo
Protocol: Insects: Ae. aegypti(L.) (red eye Liverpool strain) and An. stephensi Liston used in the study were from colonies maintained at the Walter Reed Army Institute of Research, Silver Spring, Md. […] Adults were maintained in a photoperiod of 12:12 (L:D) h at 27° C. and 80% RH with cotton pads moistened with 10% aqueous sucrose solution. Mated females were 5-15 d old when they were used in bioassays. Ae. aegypti females had access only to water 24 h and neither food nor water for another 24 h before testing. An. stephensi females were provided with water alone 24 h before testing.
Routinely, a six-celled K & D module containing five mosquitoes/cell was positioned over cloth treatments covering the six blood-membrane wells, and trap doors of the K&D modules were opened to expose the treatments to the sets of mosquitoes. After a 3 minute exposure, the number of mosquitoes biting through cloth treatments in each cell was recorded and mosquitoes were prodded back into the cells. […] Experiments were replicated 12, 18, 32, or 56 times. Thus, 60, 90, 160. or 280 mosquitoes were tested against each treatment depending on the experiment, and the proportion of mosquitoes not biting for each treatment was calculated. For each experiment, conducted in different time periods, logistic regression was used to make two sets of one degree-of-freedom contrasts (t-tests): treatments vs. control and treatments vs. SS220 for anti-biting activity within each experiment. The level of significance was set at P=0.05. In all, we conducted 8 biological experiments, and all experiments used Ae. aegypti as the test mosquito with exception of Experiment 7 which used An. stephensi.
Each experiment was replicated 18 times.
Experiments 3, 4, and 5: In each of these experiments, chromatographic fractions of essential oil at their respective percentage compositions of 100 μg essential oil/cm^2 cloth, 100 μg unfractionated essential oil/cm^2 cloth, 25 nmol SS-220/cm^2 cloth and control were compared for mosquito anti-biting activity. Each experiment was replicated 18 times.
(§3) Experiments 6 and 7: These experiments compared the anti-biting activities of SS-220, and plant-isolated callicarpenal, humulene epoxide II, intermedeol and spathulenol at 25 nmol compound/cm^2 cloth versus control against Ae. aegypti and An. stephensi, respectively. Experiment 6 was replicated 32 times and 7 had 56 replicates
The percentage composition of the mixture was a normalized percentage of active components in C. japonica essential oil based upon GC-MS analysis total ion Area % analysis based on largest peaks. Other treatments in the experiment were SS220, callicarpenal, intermedeol, and spathulenol each at 25 nmol/cm^2 cloth versus control.

Anopheles stephensi = assay: as above; format: in vivo; conditions: 25 nmol compound/cm^2 cloth; for Proportion Not Biting: Exp. 7, 56 replicates; for repellent activity (in words): Experiment 7
Description: Insects: Ae. aegypti(L.) (red eye Liverpool strain) and An. stephensi Liston used in the study were from colonies maintained at the Walter Reed Army Institute of Research, Silver Spring, Md. The insects were reared by feeding larvae ground tropical fish flakes (Tetramin Tropical Fish Flakes, Tetra Sales, Blacksburg, Va., www.tetra-fish.com)(Gerberg, E. j., et al., Manual for mosquito rearing and experimental techniques. Amer. Mosq. Control Assoc. Bull. No. 5 (revised), 1994, AMCA. inc., Lake Charles, La.). Adults were maintained in a photoperiod of 12:12 (L:D) h at 27° C. and 80% RH with cotton pads moistened with 10% aqueous sucrose solution. Mated females were 5-15 d old when they were used in bioassays. Ae. aegypti females had access only to water 24 h and neither food nor water for another 24 h before testing. An. stephensi females were provided with water alone 24 h before testing.
Mosquito Bioassay Methods: Experiment were conducted by using, a six-celled in vitro Klun & Debboun (K & D) module bioassay system developed by klun et al. (Klum J. A., et al., Journal of the American Mosquito Control Association. 21: 64-70 (2005)) for quantitative, evaluation of mosquito-repellent (anti-biting) properties of candidate repellent compounds for human use.
Plant extracts, fractions, or isolated pure plant derived compounds in 95% ethanol solution were each randomly applied to six-4×5 cm areas of organdy cloth and positioned over the membrane-covered blood. A replicate consisted of six treatments: four test chemicals or extract fractions, 95% ethanol treated cloth as control and unfractionated plant extract or a standard repellent compound, (1S, 2′S)-2-methylpiperidinyl-3-cyclohexen-1-carboxamide (SS220) at 25 nmol/cm^2 cloth. The 25 nmol SS220/cm^2 cloth dose was used as a standard, because it was known from human volunteer and in vitro assays to consistently suppress mosquito biting by 80% or more compared to controls in replicated assays (Klun, J. A., et al., Journal of the American Mosquito Control Association, 21: 64-70 (2005)). […] Routinely, a six-celled K & D module containing five mosquitoes/cell was positioned over cloth treatments covering the six blood-membrane wells, and trap doors of the K&D modules were opened to expose the treatments to the sets of mosquitoes. After a 3 minute exposure, the number of mosquitoes biting through cloth treatments in each cell was recorded and mosquitoes were prodded back into the cells. In Experiment 8, we retained all mosquitoes in their respective K&D module cells, each fitted with a water-moist piece of cotton, and observed the mosquitoes for total mosquito toxic knockdown at 6 min, 1 hr, and 24 hr post-treatment exposure. Experiments were replicated 12, 18, 32, or 56 times. Thus, 60, 90, 160. or 280 mosquitoes were tested against each treatment depending on the experiment, and the proportion of mosquitoes not biting for each treatment was calculated. For each experiment, conducted in different time periods, logistic regression was used to make two sets of one degree-of-freedom contrasts (t-tests): treatments vs. control and treatments vs. SS220 for anti-biting activity within each experiment. The level of significance was set at P=0.05. In all, we conducted 8 biological experiments, and all experiments used Ae. aegypti as the test mosquito with exception of Experiment 7 which used An. stephensi.
as §3

S. invicta = assay: Two-choice digging bioassay, head-to-head against octanoic acid; format: in vivo, Solenopsis invicta; conditions: 25.00 ppm; both S. invicta colonies; FIGS. 3 and 4
Protocol: as §1, §2

[1] = Exp. 6, 25 nmol compound/cm^2 cloth, 32 replicates
[2] = Exp. 8, 25 nmol/cm^2 cloth, 12 replicates
[3] = Experiment 6, 25 nmol compound/cm^2 cloth
[4] = Experiment 8, 25 nmol/cm^2 cloth

## CC1=CCC[C@@H]2[C@@](C)(CC=O)[C@H](C)CC[C@@]12C [callicarpenal, 13,14,15,16-tetranorclerod-3-en-12-al]
S. richteri
  repellency compared with octanoic acid (in words): significantly greater repellency than octanoic acid
Aedes aegypti; [1]
  Proportion Not Biting: 0.70^b
Aedes aegypti; [2]
  Proportion Not Biting: 0.73^a
Aedes aegypti; [3]
  repellent activity (in words): significant activity
Aedes aegypti; [4]
  repellent activity (in words): high repellent activity that was comparable to SS220
Aedes aegypti; Table 7, Example 2, synthetic compounds, dose not given
  Proportion Not Biting: 0.70^b
Aedes aegypti; Table 8, Example 3, synthetic compounds, dose not given
  Proportion Not Biting: 0.73^b
Anopheles stephensi
  Proportion Not Biting: 0.75^c
  repellent activity (in words): as effective as SS220
S. invicta
  repellency compared with octanoic acid (in words): no significant difference

## C=C(C)C1CCC2(C)CCCC(C)(O)C2C1 [intermedeol, (4S,5S,7R,10S)-eudesm-11-en-4-ol]
S. richteri
  repellency compared with octanoic acid (in words): significantly greater repellency than octanoic acid
Aedes aegypti; [1]
  Proportion Not Biting: 0.70^b
Aedes aegypti; [2]
  Proportion Not Biting: 0.62^c
Aedes aegypti; [3]
  repellent activity (in words): significant activity
Aedes aegypti; [4]
  repellent activity (in words): high repellent activity that was comparable to SS220
Anopheles stephensi
  Proportion Not Biting: 0.72^c
  repellent activity (in words): as effective as SS220
S. invicta
  repellency compared with octanoic acid (in words): significantly greater repellency than octanoic acid

Reference: US20100190849A1, “Novel Clerodanes and Methods for Repelling Arthropods” (priority 2006, published 2010)
